Columns and labels:
human GST-PIKFYVE = target: T1, human GST-PIKFYVE (Homo sapiens, UniProt Q9Y2I7); test: ADP-Glo kinase assay, enzyme inhibition activity against human PIKFYVE (Carna biosciences); assay type: biochemical; details: inhibitory activity at final compound concentration 10 nM; 1 hour at room temperature
T1 construct: GST; purchased Carna biosciences 11-118
Outline: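 Human GST-PIKFYVE (glutathione Sepharose-purified) was reacted with substrate and ATP for 1 h at room temperature in 50 mM MOPS, 1 mM DTT, pH 7.2, with compound at 10 nM final. ADP formed was read by ADP-Glo luminescence; inhibition was calculated against no-enzyme (100%) and no-compound (0%) controls.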

PIKFYVE = target: T2, PIKFYVE (Homo sapiens, UniProt Q9Y2I7); test: NanoBRET TE Intracellular Kinase Assay, interaction of PIKFYVE and compounds in HEK293 cells; assay type: cell-based; details: IC50 class from BRET; HEK293 cells expressing PIKFYVE-NanoLuc; 2 hours incubation
T2 construct: host or cells: HEK293 (ATCC, CRL-1573)
Outline: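 HEK293 cells transiently expressing a PIKFYVE-NanoLuc fusion were incubated 2 h at 37 °C, 5% CO2 with compound plus NanoBRET tracer. BRET was read after adding Nano-Glo substrate, giving intracellular target engagement by tracer displacement.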

[1] = Microsomal metabolic stability assay; assay type: in vitro ADME, human or CD1 male mouse; details: Clint class; 1 μM compound, 0.5 mg/ml microsomes, NADPH, UDPGA, Alamethicin; species not given
Procedure: The microsomal metabolic stability assay was performed using pooled human or CD1 male mouse interspecies microsomes. Supplemental cofactors (NADPH, UDPGA) and microsomal membrane pore-forming factor (Alamethicin) were added to promote cytochrome P450 (CYP), UGT reactivity to the target compound. Test compounds (1 μM incubation concentration) and microsomes (0.5 mg/ml incubation concentration) were diluted in 0.1 M phosphate buffer, pH 7.4, and incubated (37° C.). The reaction was initiated by the addition of NADPH (1 mM), UDPGA (1 mM) and Alamethicin (25 μg/mg). The incubation times were 0, 5, 15, 30, and 45 minutes, and at each time point, the reaction was terminated by adding acetonitrile containing internal standard (IS)(1:3 ratio). The plate was then sealed, centrifuged (3000 rpm, 20 min, 4° C.), and the supernatant was analyzed by LC-MS/MS. Hepatic extraction ratio values were calculated from the measured in vitro clearance and Intrinsic clearance (Clint) values were calculated from the assay results, and the respective Clint values were categorized into Low, Medium, and High categories based on the reference document (ref. Prostaglandins & other lipid mediators 136 (2018): 90-95).

T2 sequence (Q9Y2I7 whole entry): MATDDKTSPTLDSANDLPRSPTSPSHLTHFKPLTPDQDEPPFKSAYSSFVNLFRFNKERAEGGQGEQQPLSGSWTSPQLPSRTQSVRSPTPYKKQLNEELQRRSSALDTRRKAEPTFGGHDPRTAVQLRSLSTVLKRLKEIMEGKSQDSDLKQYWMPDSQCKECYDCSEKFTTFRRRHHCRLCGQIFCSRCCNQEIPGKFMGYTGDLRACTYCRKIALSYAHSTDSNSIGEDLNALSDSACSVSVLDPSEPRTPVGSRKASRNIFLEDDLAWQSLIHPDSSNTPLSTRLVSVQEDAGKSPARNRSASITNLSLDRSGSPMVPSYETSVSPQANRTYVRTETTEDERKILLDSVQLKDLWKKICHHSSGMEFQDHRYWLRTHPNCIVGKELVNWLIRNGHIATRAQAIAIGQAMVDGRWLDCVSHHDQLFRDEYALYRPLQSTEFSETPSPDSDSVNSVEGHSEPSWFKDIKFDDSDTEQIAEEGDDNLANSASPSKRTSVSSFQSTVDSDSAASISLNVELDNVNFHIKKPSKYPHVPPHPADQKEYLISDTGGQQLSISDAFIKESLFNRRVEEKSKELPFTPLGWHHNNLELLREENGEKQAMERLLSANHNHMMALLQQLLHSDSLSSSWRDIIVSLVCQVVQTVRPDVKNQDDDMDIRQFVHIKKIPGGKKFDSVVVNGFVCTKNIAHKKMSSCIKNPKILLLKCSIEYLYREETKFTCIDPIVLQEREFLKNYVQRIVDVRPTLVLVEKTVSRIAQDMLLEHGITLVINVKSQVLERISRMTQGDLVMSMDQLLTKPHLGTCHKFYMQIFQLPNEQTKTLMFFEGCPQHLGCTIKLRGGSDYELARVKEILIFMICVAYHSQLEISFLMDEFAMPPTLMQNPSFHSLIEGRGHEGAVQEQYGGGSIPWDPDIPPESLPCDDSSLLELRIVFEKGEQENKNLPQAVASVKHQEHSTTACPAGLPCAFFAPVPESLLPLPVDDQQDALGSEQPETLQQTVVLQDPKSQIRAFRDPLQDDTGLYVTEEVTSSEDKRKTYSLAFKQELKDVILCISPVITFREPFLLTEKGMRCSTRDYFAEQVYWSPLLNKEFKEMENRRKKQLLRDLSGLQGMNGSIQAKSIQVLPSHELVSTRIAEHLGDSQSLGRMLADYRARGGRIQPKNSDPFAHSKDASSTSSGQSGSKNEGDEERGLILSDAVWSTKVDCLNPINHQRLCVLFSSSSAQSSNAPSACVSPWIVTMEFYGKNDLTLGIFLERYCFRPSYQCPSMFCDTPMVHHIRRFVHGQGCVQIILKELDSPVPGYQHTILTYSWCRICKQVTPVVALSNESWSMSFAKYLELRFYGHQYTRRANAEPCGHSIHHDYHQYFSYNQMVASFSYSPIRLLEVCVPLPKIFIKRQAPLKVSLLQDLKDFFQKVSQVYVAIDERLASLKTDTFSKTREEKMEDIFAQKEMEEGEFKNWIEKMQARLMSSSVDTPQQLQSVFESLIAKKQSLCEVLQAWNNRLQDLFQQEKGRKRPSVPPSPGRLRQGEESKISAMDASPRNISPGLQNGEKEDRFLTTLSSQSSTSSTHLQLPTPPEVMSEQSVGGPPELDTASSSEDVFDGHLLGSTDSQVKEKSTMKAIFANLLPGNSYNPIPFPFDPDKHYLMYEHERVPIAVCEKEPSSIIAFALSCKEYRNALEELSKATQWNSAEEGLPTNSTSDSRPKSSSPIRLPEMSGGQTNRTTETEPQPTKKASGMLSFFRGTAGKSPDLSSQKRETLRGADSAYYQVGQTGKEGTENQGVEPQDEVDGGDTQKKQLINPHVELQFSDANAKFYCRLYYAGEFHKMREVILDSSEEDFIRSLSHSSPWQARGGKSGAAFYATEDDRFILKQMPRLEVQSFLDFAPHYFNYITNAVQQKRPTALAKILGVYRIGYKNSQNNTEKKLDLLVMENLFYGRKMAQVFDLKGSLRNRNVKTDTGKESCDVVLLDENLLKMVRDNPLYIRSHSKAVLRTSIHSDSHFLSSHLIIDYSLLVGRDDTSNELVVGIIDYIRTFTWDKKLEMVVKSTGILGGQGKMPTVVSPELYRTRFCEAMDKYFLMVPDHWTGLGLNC
T1 sequence (Q9Y2I7 whole entry): as above

Cc1cccc(/C=N/Nc2nc(N3CCOCC3)nc3c2ncn3CC(=O)c2ccccn2)c1 [Example 23, (E)-2-(6-(2-(3-methylbenzylidene)hydrazinyl)-2-morpholino-9H-purin-9-yl)-1-(pyridin-2-yl)ethan-1-one]
ADP-Glo kinase assay (%, 10 nM) (human GST-PIKFYVE): 90.82%
IC50 (PIKFYVE): ≤ 10 nM
Microsomal metabolic stability [1]: Medium (Medium 8.8~48,)

Cc1cccc(/C=N/Nc2nc(N3CCOCC3)nc3c2ncn3CC(=O)c2ccc[nH]2)c1 [Example 34, (E)-2-(6-(2-(3-methylbenzylidene)hydrazinyl)-2-morpholino-9H-purin-9-yl)-1-(1H-pyrrol-2-yl)ethan-1-one]
ADP-Glo kinase assay (%, 10 nM) (human GST-PIKFYVE): 74.72%
Microsomal metabolic stability [1]: Medium (Medium 8.8~48,)

Cc1cccc(/C=N/Nc2nc(N3CCOCC3)nc3c2ncn3C2CN(S(C)(=O)=O)C2)c1 [Example 85, (E)-4-(6-(2-(3-methylbenzylidene)hydrazinyl)-9-(1-(methylsulfonyl)azetidin-3-yl)-9H-purin-2-yl)morpholine]
ADP-Glo kinase assay (%, 10 nM) (human GST-PIKFYVE): 70.06%
Microsomal metabolic stability [1]: Medium (Medium 8.8~48,)

Cc1cccc(/C=N/Nc2nc(N3CCOCC3)nc3c2ncn3-c2ccc(C(F)(F)F)cc2)c1 [Example 104, (E)-4-(6-(2-(3-methylbenzylidene)hydrazinyl)-9-(4-(trifluoromethyl)phenyl)-9H-purin-2-yl)morpholine]
ADP-Glo kinase assay (%, 10 nM) (human GST-PIKFYVE): 68.18%
IC50 (PIKFYVE): 10 to 20 nM

Cc1cccc(-c2ccn(-c3nc(N4CCOCC4)nc4c3ncn4-c3ccncc3)n2)c1 [Example 107, 4-(9-(pyridin-4-yl)-6-(3-(m-tolyl)-1H-pyrazol-1-yl)-9H-purin-2-yl)morpholine]
ADP-Glo kinase assay (%, 10 nM) (human GST-PIKFYVE): 82.62%
IC50 (PIKFYVE): ≤ 10 nM

COc1ccc(-n2cnc3c(N/N=C/c4cccc(C)c4)nc(N4CCOCC4)nc32)nc1 [Example 108, (E)-4-(9-(5-methoxypyridin-2-yl)-6-(2-(3-methylbenzylidene)hydrazinyl)-9H-purin-2-yl)morpholine]
ADP-Glo kinase assay (%, 10 nM) (human GST-PIKFYVE): 80.35%
IC50 (PIKFYVE): ≤ 10 nM

Cc1cccc(/C=N/Nc2nc(N3CCOCC3)nc3c2ncn3-c2ccc(C)nc2)c1 [Example 110, (E)-4-(6-(2-(3-methylbenzylidene)hydrazinyl)-9-(6-methylpyridin-3-yl)-9H-purin-2-yl)morpholine]
ADP-Glo kinase assay (%, 10 nM) (human GST-PIKFYVE): 88.60%
IC50 (PIKFYVE): ≤ 10 nM

C(=N\Nc1nc(N2CCOCC2)nc2c1ncn2-c1ccncc1)/c1c[nH]c2ccccc12 [Example 112, (E)-4-(6-(2-((1H-indol-3-yl)methylene)hydrazinyl)-9-(pyridin-4-yl)-9H-purin-2-yl)morpholine]
ADP-Glo kinase assay (%, 10 nM) (human GST-PIKFYVE): 89.10%
IC50 (PIKFYVE): ≤ 10 nM

COc1ccc(-n2cnc3c(N/N=C/c4cccc(C)c4)nc(N4CCOCC4)nc32)cn1 [Example 113, (E)-4-(9-(6-methoxypyridin-3-yl)-6-(2-(3-methylbenzylidene)hydrazinyl)-9H-purin-2-yl)morpholine]
ADP-Glo kinase assay (%, 10 nM) (human GST-PIKFYVE): 87.10%
IC50 (PIKFYVE): ≤ 10 nM

Cc1cccc(/C=N/Nc2nc(N3CCOCC3)nc3c2ncn3-c2ccc(O)nc2)c1 [Example 114, (E)-5-(6-(2-(3-methylbenzylidene)hydrazinyl)-2-morpholino-9H-purin-9-yl)pyridin-2-ol]
ADP-Glo kinase assay (%, 10 nM) (human GST-PIKFYVE): 80.06%
IC50 (PIKFYVE): 20 to 30 nM

Cc1cccc(/C=N/Nc2nc(N3CCOCC3)nc3c2ncn3-c2ccnc(Cl)c2)c1 [Example 115, (E)-4-(9-(2-chloropyridin-4-yl)-6-(2-(3-methylbenzylidene)hydrazinyl)-9H-purin-2-yl)morpholine]
ADP-Glo kinase assay (%, 10 nM) (human GST-PIKFYVE): 92.24%
IC50 (PIKFYVE): ≤ 10 nM

Cc1cccc(/C=N/Nc2nc(N3CCOCC3)nc3c2ncn3-c2ccc(Cl)cn2)c1 [Example 116, (E)-4-(9-(5-chloropyridin-2-yl)-6-(2-(3-methylbenzylidene)hydrazinyl)-9H-purin-2-yl)morpholine]
ADP-Glo kinase assay (%, 10 nM) (human GST-PIKFYVE): 87.75%
IC50 (PIKFYVE): ≤ 10 nM

Cc1cccc(-c2ccn(-c3nc(N4CCOCC4)nc4c3ncn4-c3cccnc3)n2)c1 [Example 118, 4-(9-(pyridin-3-yl)-6-(3-(m-tolyl)-1H-pyrazol-1-yl)-9H-purin-2-yl)morpholine]
ADP-Glo kinase assay (%, 10 nM) (human GST-PIKFYVE): 81.33%
IC50 (PIKFYVE): ≤ 10 nM

Cc1cccc(/C=N/Nc2nc(N3CCOCC3)nc3c2ncn3-c2ccccc2)c1 [Example 119, (E)-4-(6-(2-(3-methylbenzylidene)hydrazinyl)-9-phenyl-9H-purin-2-yl)morpholine]
ADP-Glo kinase assay (%, 10 nM) (human GST-PIKFYVE): 80.61%
IC50 (PIKFYVE): ≤ 10 nM

Cc1cccc(/C=N/Nc2nc(N3CCOCC3)nc3c2ncn3-c2ccc(N(C)C)cc2)c1 [Example 123, (E)-N,N-dimethyl-4-(6-(2-(3-methylbenzylidene)hydrazinyl)-2-morpholino-9H-purin-9-yl)aniline]
ADP-Glo kinase assay (%, 10 nM) (human GST-PIKFYVE): 84.48%
IC50 (PIKFYVE): ≤ 10 nM

COc1ccccc1-n1cnc2c(N/N=C/c3cccc(C)c3)nc(N3CCOCC3)nc21 [Example 124, (E)-4-(9-(2-methoxyphenyl)-6-(2-(3-methylbenzylidene)hydrazinyl)-9H-purin-2-yl)morpholine]
ADP-Glo kinase assay (%, 10 nM) (human GST-PIKFYVE): 87.81%
IC50 (PIKFYVE): ≤ 10 nM

Cc1cccc(/C=N/Nc2nc(N3CCOCC3)nc3c2ncn3-c2cccc(OC3CC3)c2)c1 [Example 125, (E)-4-(9-(3-cyclopropoxyphenyl)-6-(2-(3-methylbenzylidene)hydrazinyl)-9H-purin-2-yl)morpholine]
ADP-Glo kinase assay (%, 10 nM) (human GST-PIKFYVE): 65.27%
IC50 (PIKFYVE): ≤ 10 nM

Cc1cccc(/C=N/Nc2nc(N3CCOCC3)nc3c2ncn3-c2cccc(O)c2)c1 [Example 131, (E)-3-(6-(2-(3-methylbenzylidene)hydrazinyl)-2-morpholino-9H-purin-9-yl)phenol]
ADP-Glo kinase assay (%, 10 nM) (human GST-PIKFYVE): 91.40%
IC50 (PIKFYVE): ≤ 10 nM

COc1cccc(-n2cnc3c(-n4ccc(-c5cccc(C)c5)n4)nc(N4CCOCC4)nc32)c1 [Example 137, 4-(9-(3-methoxyphenyl)-6-(3-(m-tolyl)-1H-pyrazol-1-yl)-9H-purin-2-yl)morpholine]
ADP-Glo kinase assay (%, 10 nM) (human GST-PIKFYVE): 81.44%
IC50 (PIKFYVE): ≤ 10 nM

Cc1ccc(-n2cnc3c(N/N=C/c4cccc(C)c4)nc(N4CCOCC4)nc32)nc1 [Example 143, (E)-4-(6-(2-(3-methylbenzylidene)hydrazinyl)-9-(5-methylpyridin-2-yl)-9H-purin-2-yl)morpholine]
ADP-Glo kinase assay (%, 10 nM) (human GST-PIKFYVE): 90.79%
IC50 (PIKFYVE): ≤ 10 nM

Cc1cccc(/C=N/Nc2nc(N3CCOCC3)nc3c2ncn3-c2cncc(C)c2)c1 [Example 145, (E)-4-(6-(2-(3-methylbenzylidene)hydrazinyl)-9-(5-methylpyridin-3-yl)-9H-purin-2-yl)morpholine]
ADP-Glo kinase assay (%, 10 nM) (human GST-PIKFYVE): 94.29%
IC50 (PIKFYVE): ≤ 10 nM

Cc1cccc(/C=N/Nc2nc(N3CCOCC3)nc3c2ncn3-c2ccc(C#N)cn2)c1 [Example 146, (E)-6-(6-(2-(3-methylbenzylidene)hydrazinyl)-2-morpholino-9H-purin-9-yl)nicotinonitrile]
ADP-Glo kinase assay (%, 10 nM) (human GST-PIKFYVE): 79.77%
IC50 (PIKFYVE): ≤ 10 nM

Cc1cccc(/C=N/Nc2nc(N3CCOCC3)nc3c2ncn3-c2cc(C)ns2)c1 [Example 148, (E)-4-(6-(2-(3-methylbenzylidene)hydrazinyl)-9-(3-methylisothiazol-5-yl)-9H-purin-2-yl)morpholine]
ADP-Glo kinase assay (%, 10 nM) (human GST-PIKFYVE): 73.88%
IC50 (PIKFYVE): ≤ 10 nM

Cc1cccc(/C=N/n2cnc3c(Nc4cccnc4)nc(N4CCOCC4)nc32)c1 [Example 191, (E)-9-((3-methylbenzylidene)amino)-2-morpholino-N-(pyridin-3-yl)-9H-purin-6-amine]
ADP-Glo kinase assay (%, 10 nM) (human GST-PIKFYVE): 76.59%
IC50 (PIKFYVE): 10 to 20 nM

Cc1cccc(/C=N/Nc2nc(N3CCOCC3)nc3c(-c4c(C)noc4C)cccc23)c1 [Example 210, (E)-4-(8-(3,5-dimethylisoxazol-4-yl)-4-(2-(3-methylbenzylidene)hydrazinyl)quinazolin-2-yl)morpholine]
ADP-Glo kinase assay (%, 10 nM) (human GST-PIKFYVE): 65.10%
IC50 (PIKFYVE): 20 to 30 nM

COc1cccc(-c2cccc3c(N/N=C/c4cccc(C)c4)nc(N4CCOCC4)nc23)c1 [Example 211, (E)-4-(8-(3-methoxyphenyl)-4-(2-(3-methylbenzylidene)hydrazinyl)quinazolin-2-yl)morpholine]
ADP-Glo kinase assay (%, 10 nM) (human GST-PIKFYVE): 64.14%
IC50 (PIKFYVE): 20 to 30 nM

COc1ccc(-c2cccc3c(N/N=C/c4cccc(C)c4)nc(N4CCOCC4)nc23)cc1 [Example 213, (E)-4-(8-(4-methoxyphenyl)-4-(2-(3-methylbenzylidene)hydrazinyl)quinazolin-2-yl)morpholine]
ADP-Glo kinase assay (%, 10 nM) (human GST-PIKFYVE): 68.30%
IC50 (PIKFYVE): 10 to 20 nM

From patent US20250388582A1, “NOVEL BICYCLIC HETEROARYL COMPOUND AND USE THEREOF” (ILDONG PHARMACEUTICAL CO., LTD., priority 2022, published 2025)
